Tests used:
[1] = system: HaCaT cell line infected with HHV-1; assay: Vitality VB-48 Assay, HHV-1 infected cells; type: cell-based, human; conditions: Control + acyclovir, mean
Method: Vitality VB-48 Assay (NucleoCounter NC-3000) was used to determine the percentage estimation of keratinocytes of varied degrees of viability after 24 h incubation with Kalanchoe daigremontiana extract.
An HHV-1 suspension was added to HaCaT cell line and incubated for 1 hour to enable adsorption of virus to cells. Afterwards, the cells were incubated with a plant extract of the respective dilution for 24 hrs to assess the viability of the keratinocytes with HHV-1 incubated with the respective dilutions of the extract of the invention as compared with Acyclovir.

[2] = system: HaCaT cell line infected with HHV-1; assay: Cell Count Assay (NucleoCounter NC-3000), HHV-1 infected cells; type: cell-based, human; conditions: Control + acyclovir, HHV-1 infected HaCaT
Method: Next, cell viability additionally in the presence of the Herpes virus was investigated with a Cell Count Assay (NucleoCounter NC-3000). An HHV-1 suspension was added to HaCaT cell line and incubated for 1 hour to enable adsorption of virus to cells; the cells were then incubated with the extract, in the respective dilution ratios, for 24 hrs.

HHV-1 = assay: Confocal microscopy, direct immunofluorescence staining of infected HaCaT cells; type: cell-based, Human herpesvirus 1; conditions: acyclovir added to infected HaCaT; 48 hrs after infection; FIG. 19
Text: Confocal microscopy (microscope magnification—60×, digital zoom) was used to view the cell structure status and positioning 48 hrs after infection with HHV-1 (FIG. 18). The method of direct immunofluorescence staining wherein the nucleus—blue (A), viral antigen —green (B), actin—red (C), nucleus/actin (D) helps further understand the structural changes in the cells. The same confocal microscopy technique was used to view the cell structure status and positioning after HHV-1 infection and treatment with Kalanchoe daigremontiana. As before the method of direct immunofluorescence staining is nucleus—blue (A), viral antigen—green (B), actin—red (C), nucleus/actin (D).

Nc1nc2c(ncn2COCCO)c(=O)[nH]1 [acyclovir]
dead cells % [1]: 77.1% | healthy cells % [1]: 3.27% | lower viability cells % [1]: 19.51% | All cells Cell % [2]: 79.67% | All cells Mean intensity [2]: 160070.3 | All cells Number of cells [2]: 7648 | Dead cells Cell % [2]: 24.05% | Dead cells Mean intensity [2]: 152872.9 | Dead cells Number of cells [2]: 5683 | Viability [%] [2]: 25.7% | Viability [%] ([2]; listed as Acyclovir): 25% | amount of viral antigen (HHV-1): lower amount of viral antigen
